The values below come from ChEMBL document CHEMBL1144330, “Novel pyrazinone mono-amides as potent and reversible caspase-3 inhibitors” (Bioorg Med Chem Lett, 2005).

Assay [1] deals with Caspase-8 (Homo sapiens, UniProt Q14790). The assay can be described thus: Inhibitory concentration against recombinant human caspase-8 […].
The nature of assay [2]: Inhibitory concentration against etoposide induced apoptosis in mice cerebellar granule neurons. In kind it is functional. The settings on record: Mus musculus.
Assay [3] can be described thus: Inhibitory concentration against etoposide induced apoptosis in rat cortical neurons. In kind it is functional.
For assay [4], the target named is T1, Caspase-3 (Homo sapiens, UniProt P42574).
T1 sequence (P42574 whole entry): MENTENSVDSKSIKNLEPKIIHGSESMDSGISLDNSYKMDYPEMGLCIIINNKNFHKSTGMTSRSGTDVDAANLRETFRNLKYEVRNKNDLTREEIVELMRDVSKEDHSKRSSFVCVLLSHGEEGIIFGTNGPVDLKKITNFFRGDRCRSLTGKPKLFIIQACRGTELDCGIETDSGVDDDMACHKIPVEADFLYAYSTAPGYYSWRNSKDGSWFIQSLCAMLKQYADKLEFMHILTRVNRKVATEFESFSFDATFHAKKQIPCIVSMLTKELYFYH
The assay can be described thus: Inhibitory concentration against recombinant human caspase-3 in neuronal precursor (NT2) cells.

Assay [5] has as its target T2, Caspase-5 (Homo sapiens, UniProt P51878).
T2 sequence (P51878 whole entry): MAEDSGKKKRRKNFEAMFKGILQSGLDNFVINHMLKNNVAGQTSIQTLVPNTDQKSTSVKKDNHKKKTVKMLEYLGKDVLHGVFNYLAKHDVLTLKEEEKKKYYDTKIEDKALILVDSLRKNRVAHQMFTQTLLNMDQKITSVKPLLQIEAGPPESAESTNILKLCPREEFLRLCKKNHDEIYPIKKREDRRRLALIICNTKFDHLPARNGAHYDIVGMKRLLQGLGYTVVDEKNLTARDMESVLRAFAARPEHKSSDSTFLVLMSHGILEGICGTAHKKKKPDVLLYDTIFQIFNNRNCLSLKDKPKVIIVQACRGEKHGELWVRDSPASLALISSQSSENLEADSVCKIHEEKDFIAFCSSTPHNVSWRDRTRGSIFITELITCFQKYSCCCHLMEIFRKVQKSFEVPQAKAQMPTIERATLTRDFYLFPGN
The assay can be described thus: Inhibitory concentration against casp-5 in neuronal precursor (NT2) cells.

Assay [6] in a line: Inhibitory concentration against cycloheximide induced cell death in human white blood cells in the presence of plasma proteins. It counts as functional, cell-based.
Assay [7] is described as follows: Inhibitory concentration against cycloheximide induced cell death in human white blood cells in the absence of plasma proteins. In kind it is functional, cell-based.
Assay [8] addresses T3, Caspase-2 (Homo sapiens, UniProt P42575).
T3 sequence (P42575 whole entry): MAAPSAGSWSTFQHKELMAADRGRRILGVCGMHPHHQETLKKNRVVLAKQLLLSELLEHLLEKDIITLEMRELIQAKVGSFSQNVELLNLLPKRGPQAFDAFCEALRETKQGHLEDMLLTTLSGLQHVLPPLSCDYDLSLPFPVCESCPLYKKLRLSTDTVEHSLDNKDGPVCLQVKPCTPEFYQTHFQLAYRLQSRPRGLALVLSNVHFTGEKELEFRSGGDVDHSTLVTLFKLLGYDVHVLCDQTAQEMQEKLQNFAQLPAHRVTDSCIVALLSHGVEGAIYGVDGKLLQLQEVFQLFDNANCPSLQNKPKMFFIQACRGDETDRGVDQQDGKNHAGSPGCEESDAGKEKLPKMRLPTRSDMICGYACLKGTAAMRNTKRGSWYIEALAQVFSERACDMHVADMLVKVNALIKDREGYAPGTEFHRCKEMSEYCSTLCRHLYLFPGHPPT
Put plainly: Inhibitory concentration against casp-2 in neuronal precursor (NT2) cells.

The subject of assay [9] is NT2. Put plainly: Inhibitory concentration against camptothecin induced apoptosis in neuronal precursor (NT2) whole cells. The settings on record: Homo sapiens. It counts as functional, cell-based.
Assay [10] has as its target T4, Caspase-4 (Homo sapiens, UniProt P49662).
T4 sequence (P49662 whole entry): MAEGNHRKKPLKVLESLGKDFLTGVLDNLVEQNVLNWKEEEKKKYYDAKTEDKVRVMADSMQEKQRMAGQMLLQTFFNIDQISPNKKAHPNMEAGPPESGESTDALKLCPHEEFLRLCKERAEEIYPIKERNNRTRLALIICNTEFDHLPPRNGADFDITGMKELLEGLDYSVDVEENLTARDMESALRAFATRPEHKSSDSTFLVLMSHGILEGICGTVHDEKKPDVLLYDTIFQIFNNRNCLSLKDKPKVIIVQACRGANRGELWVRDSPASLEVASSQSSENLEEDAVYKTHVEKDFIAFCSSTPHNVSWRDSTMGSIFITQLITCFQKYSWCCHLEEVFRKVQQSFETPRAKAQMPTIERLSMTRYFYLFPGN
The assay can be described thus: Inhibitory concentration against casp-4 in neuronal precursor (NT2) cells.

Assay [11] concerns the target T5, Caspase-1 (Homo sapiens, UniProt P29466).
T5 sequence (P29466 whole entry): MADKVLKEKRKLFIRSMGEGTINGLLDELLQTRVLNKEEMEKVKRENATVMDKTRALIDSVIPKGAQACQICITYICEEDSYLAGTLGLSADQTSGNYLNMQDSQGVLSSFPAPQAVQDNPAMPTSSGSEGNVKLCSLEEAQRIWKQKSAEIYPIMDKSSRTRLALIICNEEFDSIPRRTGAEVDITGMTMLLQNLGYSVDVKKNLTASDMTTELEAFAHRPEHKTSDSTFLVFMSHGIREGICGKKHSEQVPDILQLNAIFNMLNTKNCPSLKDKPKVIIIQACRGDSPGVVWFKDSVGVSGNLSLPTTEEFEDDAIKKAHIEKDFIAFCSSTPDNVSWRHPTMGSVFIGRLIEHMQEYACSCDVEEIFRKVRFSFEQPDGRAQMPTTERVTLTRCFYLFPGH
The assay can be described thus: Inhibitory concentration against recombinant human caspase-1 in neuronal precursor (NT2) cells.

Assay [12] deals with T6, Caspase-7 (Homo sapiens, UniProt P55210).
T6 sequence (P55210 whole entry): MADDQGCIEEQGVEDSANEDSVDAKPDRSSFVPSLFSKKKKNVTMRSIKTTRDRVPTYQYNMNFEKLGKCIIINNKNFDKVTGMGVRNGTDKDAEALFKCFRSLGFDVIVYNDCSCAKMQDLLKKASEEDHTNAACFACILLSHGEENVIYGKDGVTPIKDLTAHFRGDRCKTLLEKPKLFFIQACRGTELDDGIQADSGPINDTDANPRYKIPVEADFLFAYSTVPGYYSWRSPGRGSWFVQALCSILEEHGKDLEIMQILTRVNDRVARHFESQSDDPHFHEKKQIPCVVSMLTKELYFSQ
Put plainly: Inhibitory concentration against recombinant human caspase-7 […].

For assay [13], the target named is T7, Caspase-10 (Homo sapiens, UniProt Q92851).
T7 sequence (Q92851 whole entry): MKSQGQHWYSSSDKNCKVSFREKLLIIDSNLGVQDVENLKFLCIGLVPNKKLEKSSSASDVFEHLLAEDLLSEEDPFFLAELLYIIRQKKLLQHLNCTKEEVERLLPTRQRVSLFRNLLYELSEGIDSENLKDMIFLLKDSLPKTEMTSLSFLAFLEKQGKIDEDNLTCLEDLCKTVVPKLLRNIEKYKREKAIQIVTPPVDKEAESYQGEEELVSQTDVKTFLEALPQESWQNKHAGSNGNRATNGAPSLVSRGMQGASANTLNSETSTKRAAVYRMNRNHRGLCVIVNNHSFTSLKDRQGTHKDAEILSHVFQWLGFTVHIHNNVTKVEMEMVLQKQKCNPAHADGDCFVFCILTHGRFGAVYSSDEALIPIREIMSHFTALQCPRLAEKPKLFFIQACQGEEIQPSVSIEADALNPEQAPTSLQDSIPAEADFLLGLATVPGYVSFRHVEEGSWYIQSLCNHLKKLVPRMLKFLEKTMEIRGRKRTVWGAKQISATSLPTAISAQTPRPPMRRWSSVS
The assay can be described thus: Inhibitory concentration against casp-10 in neuronal precursor (NT2) cells.

In assay [14] the target is T8, Caspase-6 (Homo sapiens, UniProt P55212).
T8 sequence (P55212 whole entry): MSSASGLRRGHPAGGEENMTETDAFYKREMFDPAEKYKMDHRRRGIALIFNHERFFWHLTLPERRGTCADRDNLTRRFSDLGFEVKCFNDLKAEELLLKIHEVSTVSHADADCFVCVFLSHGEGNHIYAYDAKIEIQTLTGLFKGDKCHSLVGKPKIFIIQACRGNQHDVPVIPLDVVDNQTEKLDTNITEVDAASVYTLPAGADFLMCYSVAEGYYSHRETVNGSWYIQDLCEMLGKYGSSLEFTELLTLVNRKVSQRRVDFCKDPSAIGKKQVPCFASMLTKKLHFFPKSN
The assay can be described thus: Inhibitory concentration against casp-6 in neuronal precursor (NT2) cells.

Assay [15] deals with T2, Caspase-5. Put plainly: Inhibitory concentration against human caspase-5 in neuronal precursor (NT2) cells.
For assay [16], the target named is T3, Caspase-2. Put plainly: Inhibitory concentration against caspase-2 in neuronal precursor (NT2) cells.
Assay [17] concerns the target T4, Caspase-4. Put plainly: Inhibitory concentration against human caspase-4 in neuronal precursor (NT2) cells.
In assay [18] the target is T7, Caspase-10. The assay can be described thus: Inhibitory concentration against caspase-10 in neuronal precursor (NT2) cells.
For assay [19], the target named is T8, Caspase-6. Put plainly: Inhibitory concentration against caspase-6 in neuronal precursor (NT2) cells.

Caspase-8, sequence (Q14790 217-374 limits assumed): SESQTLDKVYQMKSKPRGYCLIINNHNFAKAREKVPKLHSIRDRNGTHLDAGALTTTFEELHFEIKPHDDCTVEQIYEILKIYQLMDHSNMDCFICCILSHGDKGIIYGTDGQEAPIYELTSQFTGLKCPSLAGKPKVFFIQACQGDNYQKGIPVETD
Caspase-8, sequence (Q14790 385-479 limits assumed): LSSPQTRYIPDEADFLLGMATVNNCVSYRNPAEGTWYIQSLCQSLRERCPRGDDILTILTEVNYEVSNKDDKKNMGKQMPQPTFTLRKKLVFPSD

Usually IC50 stands for the midpoint of a concentration-inhibition curve. Usually Ki stands for the dissociation constant of the complex between target and ligand, obtained from inhibition or displacement. On to `CCCCCN(C)CC(=O)C(CC(=O)O)NC(=O)C(CC)n1cc(C(C)(C)C)nc(NCc2nonc2C)c1=O` (stereo not drawn), for which the IC50 in [1] amounted to 4.03 µM; in assay [2], 60 nM; in [3] it was 60 nM; in assay [5], 810 nM; in assay [6], 700 nM; in assay [7], 40 nM. Further, the IC50 in assay [8] is over 10 µM; in assay [9] it was 27 nM; in assay [10], 500 nM; in assay [11], 110 nM; in [12], 90 nM; in assay [13] it was 29.5 µM. Further, in [14], inhibition was half-maximal at 3.44 µM (IC50). The Ki in assay [4] was determined as 1.4 nM.

Take `CCCCCCN(C)CC(=O)C(CC(=O)O)NC(=O)C(CC)n1cc(C(C)(C)C)nc(NCc2nonc2C)c1=O` (stereo not drawn): the IC50 in [1] was determined as 2.1 µM; in assay [15], 200 nM; in assay [2], 50 nM; in assay [3], 90 nM; in assay [6] it was 1200 nM; in assay [7] it was 50 nM. Besides, the IC50 is 21 nM in assay [9]; over 10 µM in assay [16]; 300 nM in assay [17]; 17.7 µM in [18]; 50 nM in assay [11]; 1700 nM in assay [19]. The IC50 in assay [12] is 13 nM. In addition, the Ki in assay [4] worked out at 5 nM.
